# Measured values from US20120213837A1, “COMPOSITIONS AND METHODS FOR BIOACTIVE COATINGS TO IMPROVE ALLOGRAFT INCORPORATION” (priority 2009, published 2012).
# Entries after “also recorded” stand apart in the source; their conditions may differ.
# Columns and labels:
# [1] = system: allograft-host bone interface; assay: H&E and Masson's trichrome staining of tibial defects; format: in vivo, Sprague Dawley rats; conditions: 6 weeks healing, vs U and C groups
# Description: (§1) All animal surgeries were performed according to an approved protocol from the UVA Animal Care and Use Committee. Briefly, adult male Sprague Dawley rats (˜400 g) were randomly assigned to three different experimental groups: uncoated allograft (U), coated 1:12 PLAGA (C), and coated 1:12 PLAGA loaded with 1:200 FTY720 (C/L). Animals were anesthetized with isoflurane gas. Following anesthetization, the dorsal skin was sterilized with betadine and 70% ethanol. A small incision was made longitudinally over the midshaft of the tibia. Subperiosteal dissection was performed once the subcutaneous tissue was dissected over the anterior aspect of the tibia. […]
# For CD45 staining to visualize leukocyte recruitment, four 7 μm-thick histological sections per sample (cryo-embedded) were blocked 3×10 minutes in PBS/saponin/BSA and immunolabeled with CD45 (BD Pharmingen) diluted 1:50 in PBS/saponin/BSA. […] To quantify changes in vascular remodeling (particularly recruitment of mural cells) in response to FTY720, SMA-positive cells that formed an obvious lumen were quantified in each tissue section. Total tissue area was measured in ImageJ, and the FTY720-mediated response was represented as a fraction of SMA-positive lumens per total tissue area. […]
# arterioles = conditions: sustained release from 50:50 PLAGA films, 1:200 wt/wt; cited from earlier work
# [2] = system: SMA-positive lumens (mural cell recruitment); assay: Smooth muscle alpha-actin (SMA) immunostaining of tibial defect sections; format: in vivo, Sprague Dawley rats; conditions: 6 weeks, interface/allograft regions, vs U and C groups
# Description: as §1
# (§2) For CD45 staining to visualize leukocyte recruitment, four 7 μm-thick histological sections per sample (cryo-embedded) were blocked 3×10 minutes in PBS/saponin/BSA and immunolabeled with CD45 (BD Pharmingen) diluted 1:50 in PBS/saponin/BSA. […] To quantify changes in vascular remodeling (particularly recruitment of mural cells) in response to FTY720, SMA-positive cells that formed an obvious lumen were quantified in each tissue section. Total tissue area was measured in ImageJ, and the FTY720-mediated response was represented as a fraction of SMA-positive lumens per total tissue area.
# [3] = system: critical size calvarial bone defects; conditions: 3D PLAGA scaffolds delivering FTY720; cited from earlier work
# [4] = system: host-bone-allograft integrated structure (excised tibias); assay: Post-operative mechanical properties, compression in Instron 4511; format: in vivo, Sprague Dawley rats; conditions: 6 weeks post-op, compression 1 mm/min, vs U and C groups
# Description: All animal surgeries were performed according to an approved protocol from the UVA Animal Care and Use Committee. Briefly, adult male Sprague Dawley rats (˜400 g) were randomly assigned to three different experimental groups: uncoated allograft (U), coated 1:12 PLAGA (C), and coated 1:12 PLAGA loaded with 1:200 FTY720 (C/L). Animals were anesthetized with isoflurane gas. Following anesthetization, the dorsal skin was sterilized with betadine and 70% ethanol. A small incision was made longitudinally over the midshaft of the tibia. Subperiosteal dissection was performed once the subcutaneous tissue was dissected over the anterior aspect of the tibia. A Dremel rotary tool with a Diamond Wheel accessory was used to make an 8 mm defect slightly distal to the tibial tubercle and the 8 mm allograft segment was inserted into the defect. A stab incision was made just medial to the patellar tendon and a 19.5 gauge needle was inserted into the intramedullary canal, through the allograft, into the distal intramedullary canal to resistance, and tamped flush to the bone. […]
# A leading cause of allograft failure or post-operative complications includes mechanical instability at the bone-allograft interface. […] To determine the elastic modulus, the slope was calculated between the values of 0.07 to 0.08 strain, since this was the interval in which the elastic region existed in all the graphs.
# CD45+ leukocytes = assay: CD45 immunostaining of tibial defect sections; format: in vivo, Sprague Dawley rats; conditions: 6 weeks, qualitative images
# Description: as §1, §2
# [5] = in vivo; cited from earlier work
# [6] = In vitro release of 33P-labelled S1P from PLAGA-coated allografts; encapsulation efficiency; format: physicochemical
# Description: Allograft samples were coated similarly to the above protocol with radio-labeled sphingosine-1-phosphate (S1P, Cayman Chemical, Ann Arbor Mich.) to measure drug release over a 14-day period. Specifically, 2.92 mg of S1P was resolubilized in MeCl to a final concentration of 2 mg/mL by frequent heating and vortexing. Using a conversion factor of 2.2×10^6 cpm/μCi and 1 μCi/μL, 6.8 μL of Phosphorus-33 (^33P) (Perkin Elmer, Inc., Waltham, Mass.) was added to the S1P solution. Next, 583 mg of 50:50 PLAGA was added to the S1P-^33P solution to achieve a 1:12 (wt./vol.) polymer-solvent ratio. The final solution had 2.92 mg of S1P, 6.8 μL of ^33P, and 583 mg of 50:50 PLAGA mixed in 7 mL of MeCl. The coated allografts were then placed into a glass scintillation vial containing 50 μL of simulated body fluid (SBF) with 4% fatty acid free (FAF) BSA. Following 24 hours incubation, the allografts were removed from the vials and the remaining 4% FAF-BSA SBF was mixed with 5 mL of EcoScintA biodegradable scintillation solution for quantifying drug release using the Beckman Coulter liquid scintillation counter. Allografts were then placed into a new glass vial containing fresh 4% FAF-BSA SBF. This cycle was repeated for a 14-day period to achieve cumulative measurements. Encapsulation efficiency (maximum amount of S1P that can be released) was quantified by placing allografts in MeCl to completely dissolve the drug-containing polymer solution.
# To determine total amount of drug loaded into allograft implants and the kinetics of drug release, in vitro experiments were conducted utilizing allografts loaded with S1P-^33P (FIG. 3). Complete degradation of PLAGA occurs between 6-8 weeks. However, substantial S1P release was expected to occur earlier, given the bulk degradation profile of PLAGA. We found approximately 0.64 mg of the original 1 mg of S1P was actually loaded within the polymer-coated allograft (64% loading efficiency). After 14 days incubation, 0.57 mg of S1P was detected in the simulated body fluid (SBF). […]
# [7] = in the absence of a carrier protein; cited from earlier work
# [8] = system: smooth muscle proliferation and migration; conditions: daily injections; cited from earlier work
structure (smiles),measurement,setting,value
"CCCCCCCCc1ccc(CCC(N)(CO)CO)cc1 [FTY720, Fingolimod]","allograft-host bone integration, histology",[1],"superior collagen alignment, osseous tissue generation along the outer edge of the allograft tissue, better preservation of inner cancellous porous regions, and preservation of allograft-tibial alignment"
same,microvascular remodeling (arterioles),arterioles,promotes formation of new arterioles and structural enlargement of existing arterioles
same,number of blood vessels stained with smooth muscle alpha-actin,[2],significantly increased; also recorded: enhanced the number of smooth-muscle-invested vessels
same,osseous tissue ingrowth and proportion of mature smooth muscle cell-invested microvessels,[3],significantly increases
same,elastic modulus,[4],statistically significant increases
same,ultimate compressive strength,[4],statistically significant increases
same,number of CD45+ leukocytes within allograft-host bone interface,CD45+ leukocytes,reductions in the number of leukocytes; also recorded: significant reduction
same,half-life,[5],approximately 7 days
"CCCCCCCCCCCCC/C=C/[C@@H](O)[C@@H](N)COP(=O)(O)O [S1P, sphingosine-1-phosphate]",loading efficiency,[6]; 50:50 PLAGA 1:12 coated allograft,64%
same,release profile,"[6]; 50:50 PLAGA coated allograft, SBF",initial burst release of drug was observed during the first five days
same,amount of S1P loaded within the polymer-coated allograft,"[6]; of the original 1 mg of S1P, 50:50 PLAGA 1:12 coating",approximately 0.64 mg
same,solubility in aqueous solutions,[7],insoluble
same,half-life in blood,[5],less than 1 hour
CCCCCCCCc1cccc(NC(=O)[C@H](N)CCP(=O)(O)O)c1 [VPC44116],smooth muscle proliferation and migration,[8],significantly decreased
